Test systems include 786-0; A549; CCRF-CEM; HOP-62; HT-29; Hs-578T; IGROV-1; M14; MCF7; MDA-MB-435; MDA-N; Malme-3M; NCI-H460; RPMI-8226; SF-539; SK-MEL-5; SK-OV-3; UACC-62; SNB-19.
Holding throughout (assay): NCI-60 cell line screen, 48 h

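Dose response: 5 concentrations. Exposure: 48 h. Format: 96-well plates. Endpoint: linear interpolation; highest concentration if not reached. GI50 is the concentration that inhibits growth by half.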 The source made the active and inactive calls. No stated cut-off is given here; in the data, active = GI50 up to about 1.1 µM and inactive = higher. A value given as a limit tells only on which side of the number the result lay.

With `Cc1cc(C)c(OC(=O)Nc2cccc3ccccc23)c(-c2ccccc2)c1`, the GI50 with 786-0 was 50.5 µM (inactive); in the experiment with A549 it was 32.6 µM (inactive); with CCRF-CEM, 22.2 µM (inactive); in the experiment with HOP-62, 65.8 µM (inactive); in the experiment with HT-29, 43.2 µM (inactive); in the experiment on Hs-578T it was 25 µM (inactive). In addition, the GI50 in the experiment on IGROV-1 was 36.5 µM (inactive); in the experiment with M14, 29.1 µM (inactive); with MCF7, 52.5 µM (inactive); in the experiment on MDA-MB-435 it was 30.1 µM (inactive); in the experiment on MDA-N, 29 µM (inactive); with Malme-3M, 32.4 µM (inactive). Also, the GI50 with NCI-H460 is 47.9 µM (inactive); in the experiment on RPMI-8226 it was 22.5 µM (inactive); in the experiment with SF-539, 57 µM (inactive); in the experiment on SK-MEL-5, 16.4 µM (inactive); with SK-OV-3, 67.6 µM (inactive); in the experiment with UACC-62, 30.4 µM (inactive).

Consider `N#Cc1nc(CCCCCN2C(=O)c3ccccc3C2=O)oc1N`, for which the GI50 is > 100 µM (inactive) in the experiment with 786-0; > 100 µM (inactive) with A549; 1.91 µM (inactive) in the experiment on CCRF-CEM; > 100 µM (inactive) in the experiment with HOP-62; > 100 µM (inactive) with HT-29; > 100 µM (inactive) in the experiment on Hs-578T. Moreover, the GI50 with IGROV-1, with M14, in the experiment with MCF7, with MDA-MB-435, in the experiment on MDA-N and in the experiment on Malme-3M was > 100 µM (inactive) throughout. Further, the GI50 was > 100 µM (inactive) in the experiment on NCI-H460; 21.1 µM (inactive) in the experiment with RPMI-8226; > 100 µM (inactive) with SF-539; > 100 µM (inactive) in the experiment on SK-MEL-5; > 100 µM (inactive) in the experiment with SK-OV-3; > 100 µM (inactive) in the experiment on SNB-19.

In the case of `CC1CC(C)CC(NC2=NCCO2)C1` (centres undefined), the GI50 with 786-0, with A549, in the experiment with CCRF-CEM, in the experiment with HOP-62, in the experiment with HT-29 and in the experiment on Hs-578T was > 100 µM (inactive) each time. For the same molecule, the GI50 in the experiment on IGROV-1, with M14, with MCF7, in the experiment with MDA-MB-435, in the experiment on MDA-N and with Malme-3M was > 100 µM (inactive) each time. Besides, the GI50 in the experiment with NCI-H460, with RPMI-8226, in the experiment on SF-539, in the experiment with SK-MEL-5, with SNB-19 and in the experiment on UACC-62 was > 100 µM (inactive) in each case.

Regarding `O=C(Nc1ccc(Br)cc1)c1c(-c2ccccc2)c2ccc(O)cc2oc1=O`, the GI50 in the experiment with 786-0, with CCRF-CEM, in the experiment with HOP-62, with HT-29, in the experiment on Hs-578T and in the experiment on IGROV-1 was > 10 µM (inactive) each time. In addition, the GI50 in the experiment with M14, in the experiment on MCF7, in the experiment on MDA-MB-435, in the experiment with MDA-N, with Malme-3M and in the experiment on NCI-H460 was > 10 µM (inactive) throughout. The GI50 in the experiment with RPMI-8226, in the experiment with SF-539, in the experiment on SK-MEL-5 and in the experiment with SK-OV-3 was > 10 µM (inactive) in each case.

As to `Nc1nc(Cl)c(Cl)c(NCC2(O)CCC2)n1`, the GI50 with 786-0 was > 100 µM (inactive); with A549, 76.4 µM (inactive); in the experiment with CCRF-CEM it was > 100 µM (inactive); in the experiment with HOP-62 it was 92.3 µM (inactive); with HT-29, > 100 µM (inactive); in the experiment on Hs-578T it was 51.3 µM (inactive). Also, the GI50 in the experiment on IGROV-1 is 45.6 µM (inactive); with MCF7, 74.1 µM (inactive); in the experiment on MDA-MB-435, 88.3 µM (inactive); in the experiment with MDA-N it was > 100 µM (inactive); in the experiment with Malme-3M, 62.7 µM (inactive); in the experiment with NCI-H460, > 100 µM (inactive). Besides, the GI50 with RPMI-8226 is 42 µM (inactive); in the experiment on SF-539, > 100 µM (inactive); in the experiment on SK-MEL-5, 18.8 µM (inactive); in the experiment on SK-OV-3, 39.3 µM (inactive); in the experiment with SNB-19 it was > 100 µM (inactive); in the experiment with UACC-62, 36.2 µM (inactive).

With `Cc1cc2ncc3c(=O)n(NS(=O)(=O)c4ccc(N)cc4)ccc3n2n1`, the GI50 with 786-0, with A549, with CCRF-CEM, in the experiment on HOP-62, in the experiment with HT-29 and with Hs-578T was > 100 µM (inactive) throughout. Further, the GI50 in the experiment on IGROV-1 was > 100 µM (inactive); in the experiment on M14, > 100 µM (inactive); in the experiment on MCF7 it was > 100 µM (inactive); with MDA-MB-435 it was > 100 µM (inactive); in the experiment on MDA-N it was > 100 µM (inactive); in the experiment on Malme-3M, 36.3 µM (inactive). In addition, the GI50 with NCI-H460, in the experiment with SF-539, with SK-MEL-5, with SK-OV-3, in the experiment on SNB-19 and with UACC-62 was > 100 µM (inactive) in each case.

Turning to `Cc1cc(NCCCCCCCCCC[n+]2c(C)cc(N)c3ccccc32)c2ccccc2n1`, the GI50 with 786-0 was 1.78 µM (inactive); in the experiment with A549 it was 0.378 µM (active); in the experiment on CCRF-CEM, 0.472 µM (active); in the experiment on HOP-62, 4.36 µM (inactive); with Hs-578T it was 0.375 µM (active); in the experiment with IGROV-1, 0.419 µM (active). The GI50 was 2.04 µM (inactive) with M14; 0.313 µM (active) with MCF7; 1.01 µM (active) in the experiment on MDA-MB-435; 1.04 µM (active) in the experiment with MDA-N; 1.82 µM (inactive) with Malme-3M; 0.0638 µM (active) in the experiment with NCI-H460. The GI50 with RPMI-8226 is 0.029 µM (active); in the experiment with SF-539, 1.82 µM (inactive); in the experiment on SK-MEL-5 it was 0.112 µM (active); in the experiment on SK-OV-3 it was 1.11 µM (active); in the experiment with SNB-19, 0.427 µM (active); with UACC-62, 1.16 µM (inactive).

Turning to `COc1ccc2nc(-c3ccccc3)c(=O)[nH]c2c1`, the GI50 with 786-0, in the experiment with A549, in the experiment with CCRF-CEM, in the experiment with HOP-62, with HT-29 and in the experiment on Hs-578T was > 100 µM (inactive) each time. In addition, the GI50 in the experiment on IGROV-1, with M14, with MCF7, in the experiment on MDA-MB-435, in the experiment on MDA-N and with Malme-3M was > 100 µM (inactive) in each case. Moreover, the GI50 in the experiment with NCI-H460, with RPMI-8226, in the experiment with SF-539, with SK-MEL-5, in the experiment on SNB-19 and with UACC-62 was > 100 µM (inactive) each time.

Consider `CC(C)(Oc1ccc(Cl)cc1)C(=O)N(C(=O)N1CCCCC1)c1ccccc1`, for which the GI50 in the experiment with 786-0 is 13.4 µM (inactive); with CCRF-CEM, 16.7 µM (inactive); in the experiment on HT-29, 8.34 µM (inactive); in the experiment on Hs-578T it was 16.9 µM (inactive); in the experiment with IGROV-1 it was 5.09 µM (inactive); with M14, 17.5 µM (inactive). Besides, the GI50 was 19.6 µM (inactive) in the experiment with MCF7; 16 µM (inactive) in the experiment on MDA-MB-435; 24.5 µM (inactive) in the experiment on MDA-N; 12 µM (inactive) in the experiment with Malme-3M; 7.55 µM (inactive) in the experiment with RPMI-8226; 8.34 µM (inactive) in the experiment on SF-539. Besides, the GI50 in the experiment with SK-MEL-5 was 10.4 µM (inactive); in the experiment with SK-OV-3, 19.8 µM (inactive); with SNB-19, 16.8 µM (inactive); with UACC-62, 13.2 µM (inactive).

On to `COc1cc2c(cc1OC)C(=O)/C(=C/c1ccccc1)CC2`, for which the GI50 in the experiment with 786-0 is 34.9 µM (inactive); in the experiment on A549, 27.7 µM (inactive); in the experiment on CCRF-CEM, 5.83 µM (inactive); in the experiment on HOP-62 it was > 100 µM (inactive); in the experiment on HT-29 it was 17.9 µM (inactive); with Hs-578T, > 100 µM (inactive). The GI50 in the experiment on IGROV-1 was 38.9 µM (inactive); with M14, > 100 µM (inactive); in the experiment with MCF7, 27.3 µM (inactive); in the experiment with MDA-MB-435, 8.09 µM (inactive); in the experiment on MDA-N it was 12.4 µM (inactive); with Malme-3M, > 100 µM (inactive). The GI50 is 26.9 µM (inactive) in the experiment on NCI-H460; 23.4 µM (inactive) in the experiment with RPMI-8226; 47.5 µM (inactive) in the experiment with SF-539; 17.1 µM (inactive) in the experiment on SK-MEL-5; 25.5 µM (inactive) in the experiment on SK-OV-3; 27.7 µM (inactive) in the experiment on SNB-19.

Take `O=c1oc2cccnc2n1CCN1CCN(c2ccc(Oc3ccccc3)cc2)CC1`: the GI50 in the experiment on 786-0 is 20 µM (inactive); in the experiment on A549, > 100 µM (inactive); in the experiment on CCRF-CEM, 7.21 µM (inactive); with HOP-62, > 100 µM (inactive); in the experiment with HT-29, 7.82 µM (inactive); with Hs-578T, > 100 µM (inactive). Further, the GI50 in the experiment with IGROV-1 was > 100 µM (inactive); in the experiment with M14 it was 89.7 µM (inactive); in the experiment with MCF7 it was > 100 µM (inactive); in the experiment on MDA-MB-435 it was 63.2 µM (inactive); with MDA-N, 79.6 µM (inactive); in the experiment with Malme-3M, 41.6 µM (inactive). Moreover, the GI50 with NCI-H460 was 77.8 µM (inactive); in the experiment with RPMI-8226, 8.47 µM (inactive); in the experiment with SF-539, > 100 µM (inactive); with SK-MEL-5, 10.2 µM (inactive); in the experiment with SK-OV-3, > 100 µM (inactive); with SNB-19, > 100 µM (inactive).
